US8609650B2, “Bridged bicyclic aryl and bridged bicyclic heteroaryl substituted triazoles useful as Axl inhibitors” (Rigel Pharmaceuticals, Inc., priority 2006, dated 2013)

These molecules were tested against T1, Axl (Homo sapiens, UniProt P30530) (assay: Phospho-Akt In-Cell Western Assay (ability to inhibit Axl activity)). Conditions: Hela cells, stimulated by Axl-antibody cross-linking, phospho-Akt chemiluminescence normalized to relative cell number.
T1 construct: endogenous in cells; host or cells: HeLa cells
T1 sequence (P30530 26-894): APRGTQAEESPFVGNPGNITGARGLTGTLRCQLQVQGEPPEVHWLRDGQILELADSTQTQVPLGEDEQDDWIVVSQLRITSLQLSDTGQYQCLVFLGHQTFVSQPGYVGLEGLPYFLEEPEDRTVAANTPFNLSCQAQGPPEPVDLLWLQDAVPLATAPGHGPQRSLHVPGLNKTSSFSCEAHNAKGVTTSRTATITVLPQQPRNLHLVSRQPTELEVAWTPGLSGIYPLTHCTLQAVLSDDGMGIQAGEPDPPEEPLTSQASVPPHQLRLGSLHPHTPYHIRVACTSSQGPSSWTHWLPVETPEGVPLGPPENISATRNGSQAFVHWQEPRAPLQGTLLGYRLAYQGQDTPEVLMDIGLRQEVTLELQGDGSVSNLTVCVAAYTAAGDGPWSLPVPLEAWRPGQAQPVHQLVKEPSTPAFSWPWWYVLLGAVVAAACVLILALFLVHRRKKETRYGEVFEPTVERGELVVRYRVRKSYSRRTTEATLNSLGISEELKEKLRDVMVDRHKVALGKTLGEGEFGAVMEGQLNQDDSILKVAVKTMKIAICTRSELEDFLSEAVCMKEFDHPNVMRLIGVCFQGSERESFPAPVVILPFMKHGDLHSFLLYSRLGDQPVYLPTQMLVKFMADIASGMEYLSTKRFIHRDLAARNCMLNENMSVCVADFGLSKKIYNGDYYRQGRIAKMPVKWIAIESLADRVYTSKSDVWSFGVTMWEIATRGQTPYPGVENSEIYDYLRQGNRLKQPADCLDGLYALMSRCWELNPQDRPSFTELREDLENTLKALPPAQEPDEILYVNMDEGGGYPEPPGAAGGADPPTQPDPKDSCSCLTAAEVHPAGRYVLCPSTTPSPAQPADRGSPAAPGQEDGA
Assay type: cell-based
Method: The compounds of the invention were tested in the following assay for their ability to inhibit Axl activity.
Phospho-Akt In-Cell Western Assay
• Cell culture plate: 96 well assay plate (Corning 3610), white, clear bottom, tissue-culture treated. • Cells: Hela cells. • Starvation medium: For Axl stimulation: 0.5% FCS (fetal calf serum) in DMEM, plus Axl/Fc (extracellular domain of AXL fused to immunoglobulin Fc region) (R&D, 154-AL) 500 ng/mL. • For EGF (epidermal growth factor) stimulation: 0.5% FCS in DMEM (Dulbecco's modified Eagles medium). • Poly-L-Lysine 0.01% solution (the working solution): 10 μg/ml, dilute In PBS (phosphate buffered saline). • Axl antibody cross-linking: • 1st: Mouse anti-Axl (R&D, MAB154). • 2nd: Biotin-SP-conjugated AffiniPure goat anti-mouse IgG (H+L) (Jackson ImmunoResearch #115-065-003). • Fixing buffer: 4% formaldehyde in PBS. • Wash buffer: 0.1% TritonX-100 in PBS. • Quenching buffer: 3% H2O2, 0.1% Azide in wash buffer, Azide and hydrogen peroxide (H2O2) are added fresh. • Blocking buffer: 5% BSA in TBST (tris buffered saline plus 0.1% Tween 20). • Primary antibody: Rabbit anti-human Phospho-Akt antibody (Cell Signaling 9271): 1×250 diluted in blocking buffer. • Secondary antibody: HRP (horse radish peroxidase)-conjugated Goat anti-Rabbit secondary, stock solution: Jackson ImmunoResearch (Goat anti-Rabbit HRP, #111-035-144) 1:1 diluted in glycerol, store at −20° C. The working solution: 1×2000 dilution of stock in blocking buffer. • Chemiluminescent working solution (Pierce, 37030): SuperSignal ELISA (enzyme linked immunosorbant assay) Pico Chemiluminescent substrate. • Crystal Violet solution: Stock: 2.5% Crystal violet in methanol, filtered and kept at ambient temperature. The working solution: dilute the stock 1:20 with PBS immediately before use. • 10% SDS: working solution: 5% SDS (sodium dodecylsulfate), diluted in PBS Methods: Day 1:
A 96 well TC (tissue culture treated) plate was coated with 10 μg/mL poly-L-Lysine at 37° C. for 30 min, washed twice with PBS, and air-dried for 5 minutes before cells were added. Hela cells were seeded at 10,000 cells/well and the cells were starved in 100 μL starvation medium containing Axl/Fc for 24 hrs.
The cells were pre-treated with test compounds by adding 100 μL of 2× test compound to the starvation medium on the cells. The cells were incubated at 37° C. for 1 hr before stimulation.
The cells were stimulated by Axl-antibody cross-linking as follows: A 5×1st/2nd Axl antibody mixture was made (37.5 μg/mL 1st/100 μg/mL 2nd) in starvation medium and nutated at 4° C. with thorough mixing for 1-2 hours for clustering. The resulting mix was warmed to 37° C. 50 μL of 5× Axl 1st/2nd of antibody cluster was added to the cells and the cells were incubated at 37° C. for 5 min.
After 5 minutes stimulation, the plate was flicked to remove medium and the plate was tapped onto paper towels. Formaldehyde (4.0% in PBS, 100 μL) was added to fix the cells and the cells were incubated at ambient temperature for 20 min without shaking.
The cells were washed with a plate washer buffer to remove the formaldehyde solution. The plate was flicked to removed excess wash buffer and tapped onto paper towels. Quenching buffer (100 μL) was added to each well and the cells were incubated at ambient temperature for 20 minutes without shaking.
The cells were washed with a plate washer buffer to remove the quenching buffer. Blocking buffer (100 μL) was added and the cells were incubated at ambient temperature for at least an hour with gentle shaking.
The cells were washed with a plate washer buffer and diluted primary antibody (50 μL) was added to each well (blocking buffer was added to the negative control wells instead). The plates were incubated overnight at 4° C. with gentle shaking.
The wash buffer was removed, diluted secondary antibody (100 μL) was added, and the cells were incubated at ambient temperature for 1 hour with gentle shaking. […]

SMILES	IC50 [nM]
Nc1nc(Nc2ccc(N3CCN(C4CC5CCC4C5)CC3)cc2)nn1-c1ncnc2c1C1CCC2C1 (stereo not shown) [Compound 18, 1-(5,8-methano-5,6,7,8-tetrahydroquinazolin-4-yl)-N^3-(4-(4-(bicyclo[2.2.1]heptan-2-yl)piperazin-1-yl)phenyl)-1H-1,2,4-triazole-3,5-diamine]	< 1000
CCOC(=O)C1CCN(C2CCN(c3ccc(Nc4nc(N)n(-c5cc(-c6ccccc6)c6c(n5)C5CCN6CC5)n4)cc3F)CC2)CC1 [Compound 58, (1,4-ethano-8-phenyl-1,2,3,4-tetrahydro-1,5-naphthyridin-6-yl)-N^3-(3-fluoro-4-(4-(4-ethyloxycarbonylpiperidin-1-yl)piperidin-1-yl)phenyl)-1H-1,2,4-triazole-3,5-diamine]	< 1000
Nc1nc(Nc2ccc(N3CCN(C4CCCCC4)CC3)c(F)c2)nn1-c1cc(-c2ccccc2)c2c(n1)C1CCC2C1 (stereo not shown) [Compound 44, 1-(5,8-methano-4-phenyl-5,6,7,8-tetrahydroquinoline-2-yl)-N^3-(3-fluoro-4-(4-cyclohexylpiperazin-1-yl)phenyl)-1H-1,2,4-triazole-3,5-diamine]	1000 to 10000
Nc1nc(Nc2ccc(N3CCNC(C(=O)O)C3)c(F)c2)nn1-c1cc(-c2ccccc2)c2c(n1)C1CCN2CC1 (stereo not shown) [Compound 33, 1-(1,4-ethano-8-phenyl-1,2,3,4-tetrahydro-1,5-naphthyridin-6-yl)-N^3-(3-fluoro-4-(3-carboxypiperazin-1-yl)phenyl)-1H-1,2,4-triazole-3,5-diamine]	1000 to 10000
Nc1nc(Nc2ccc(N3CCC(N4CCCC4)CC3)c(F)c2)nn1-c1cc(-c2ccsc2)c2c(n1)C1CCN2CC1 [Compound 64, 1-(1,4-ethano-8-thiophen-3-yl-1,2,3,4-tetrahydro-1,5-naphthyridin-6-yl)-N^3-(3-fluoro-4-(4-(pyrrolidin-1-yl)piperidin-1-yl)phenyl)-1H-1,2,4-triazole-3,5-diamine]	< 1000
COC(=O)[C@@H]1CN(c2ccc(Nc3nc(N)n(-c4cc(-c5ccccc5)c5c(n4)C4CCN5CC4)n3)cc2F)CCN1CC1CC1 [Compound 65, 1-(1,4-ethano-8-phenyl-1,2,3,4-tetrahydro-1,5-naphthyridin-6-yl)-N^3-(3-fluoro-4-((3S)-3-methyloxycarbonyl-4-cyclopropylmethylpiperazin-1-yl)phenyl)-1H-1,2,4-triazole-3,5-diamine]	< 1000
Nc1nc(Nc2ccc(N3CCN(C4CCCCC4)CC3)cc2)nn1-c1ncc2c(n1)C1CCC2C1 (stereo not shown) [Compound 6, 1-(5,8-methano-5,6,7,8-tetrahydroquinazolin-2-yl)-N^3-(4-(4-cyclohexanylpiperazin-1-yl)phenyl)-1H-1,2,4-triazole-3,5-diamine]	< 1000
CN1CCC(c2ccc(Nc3nc(N)n(-c4cc(-c5ccccc5)c5c(n4)C4CCN5CC4)n3)cc2)CC1 [Compound 67, 1-(1,4-ethano-8-phenyl-1,2,3,4-tetrahydro-1,5-naphthyridin-6-yl)-N^3-(4-(1-methylpiperidin-4-yl)phenyl)-1H-1,2,4-triazole-3,5-diamine]	< 1000
Nc1nc(Nc2ccc3c(c2)CCNC3)nn1-c1ncc2c(n1)C1CCC2C1 (stereo not shown) [Compound 13, 1-(5,8-methano-5,6,7,8-tetrahydroquinazolin-2-yl)-N^3-(1,2,3,4-tetrahydroisoquinolin-6-yl)-1H-1,2,4-triazole-3,5-diamine]	> 20000
Nc1nc(Nc2ccc(N3CCN(CC4CC4)[C@H](C(=O)O)C3)c(F)c2)nn1-c1cc(-c2ccccc2)c2c(n1)C1CCN2CC1 [Compound 66, 1-(1,4-ethano-8-phenyl-1,2,3,4-tetrahydro-1,5-naphthyridin-6-yl)-N^3-(3-fluoro-4-((3S)-3-carboxy-4-cyclopropylmethylpiperazin-1-yl)phenyl)-1H-1,2,4-triazole-3,5-diamine]	< 1000

Results, then the molecule that gave them:

IC50 [nM]	SMILES
> 20000	CC1(C)[C@H]2Cc3ccc(-n4nc(Nc5ccc(N6CCN(C7CC8CCC7C8)CC6)c(F)c5)nc4N)nc3[C@@H]1C2 (stereo partly drawn) [Compound 39, 1-(7,7-dimethyl-(6R,8R)6,8-methano-5,6,7,8-tetrahydroquinoline-2-yl)-N^3-(3-fluoro-4-(4-bicyclo[2.2.1]heptan-2-ylpiperazin-1-yl)phenyl)-1H-1,2,4-triazole-3,5-diamine]
< 1000	Cc1csc2c(-n3nc(Nc4ccc5c(c4)CC4CCC(C5)C4N4CCCC4)nc3N)nc(Cl)nc12 (stereo not shown) [Compound 15, 1-(2-chloro-7-methylthieno[3,2-d]pyrimidin-4-yl)-N^3-(7-pyrrolidin-1-yl-6,8-ethano-6,7,8,9-tetrahydro-5H-benzo[7]annulene-3-yl)-1H-1,2,4-triazole-3,5-diamine]
< 1000	CN1CCN(C2CCN(c3ccc(Nc4nc(N)n(-c5cc(-c6ccccc6)c6c(n5)C5CCN6CC5)n4)cc3F)CC2)CC1 [Compound 41, 1-(1,4-ethano-8-phenyl-1,2,3,4-tetrahydro-1,5-naphthyridin-6-yl)-N^3-(3-fluoro-4-(4-(4-methylpiperazin-1-yl)piperidin-1-yl)phenyl)-1H-1,2,4-triazole-3,5-diamine]
< 1000	Nc1nc(Nc2ccc(N3CCN(C4CC5CCC4C5)CC3)cc2)nn1-c1ncc2c(n1)C1CCC2C1 (stereo not shown) [Compound 8, N^3-(4-(4-(bicyclo[2.2.1]heptan-2-yl)piperazin-1-yl)phenyl)-1-(5,8-methano-5,6,7,8-tetrahydroquinazolin-2-yl)-1H-1,2,4-triazole-3,5-diamine]
< 1000	Nc1nc(Nc2ccc3c(c2)CCC(N2CCCC2)CC3)nn1-c1cc(-c2ccccc2)c2c(n1)C1CCN2CC1 (stereo not shown) [Compound 72, 1-(1,4-ethano-8-phenyl-1,2,3,4-tetrahydro-1,5-naphthyridin-6-yl)-N^3-(7-pyrrolidin-1-yl-6,7,8,9-tetrahydro-5H-benzo[7]annulene-3-yl)-1H-1,2,4-triazole-3,5-diamine]
< 1000	CN1CCN(C2CCN(c3ccc(Nc4nc(N)n(-c5cc(-c6cccs6)c6c(n5)C5CCC6C5)n4)cc3F)CC2)CC1 (stereo not shown) [Compound 47, 1-(5,8-methano-4-thiophen-2-yl-5,6,7,8-tetrahydroquinoline-2-yl)-N^3-(3-fluoro-4-(4-(4-methylpiperazin-1-yl)piperidin-1-yl)phenyl)-1H-1,2,4-triazole-3,5-diamine]
